# Test: Partition coefficient, log P of the compound
# Format: physicochemical
# Conditions: octanol/water
row,Structure (SMILES),logP
1,CCOC(=O)[C@]1(C)C[C@H](CC)C=[N+]1[O-] (relative stereo),1.38
2,CCOC(=O)C1(C)CCC=[N+]1[O-] (configuration not stated),0.15
3,CCOC(=O)[C@@]1(CC)C[C@@H](C)C=[N+]1[O-] (relative stereo),1.34
4,CCOC(=O)[C@@]1(CC)C[C@H](C)C=[N+]1[O-] (relative stereo),1.48

# More lines, now with the values ahead:
row,logP,Structure (SMILES)
1,1.07,CCOC(=O)C1(CC)C(C)CC=[N+]1[O-] (mixture of isomers)
2,1.34,CCOC(=O)C1(C)C(CC)CC=[N+]1[O-] (mixture of isomers)
3,1.67,CCOC(=O)[C@]1(C)C[C@@H](CC)C=[N+]1[O-] (relative stereo)

# Reference: ChEMBL document CHEMBL1143022, “Free radical trapping properties of several ethyl-substituted derivatives of 5-ethoxycarbonyl-5-methyl-1-pyrroline N-oxide (EMPO)” (Bioorg Med Chem, 2007)
